Experimental data published in patent US10076481B2, “Compositions for treating periodontitis and dental calculus accumulation” (The Research Foundation for the State University of New York, priority 2016, dated 2018).

Tests used:
Type in all cases: cell-based
[1] = tested on: human salivary sediment; assay: pH response of salivary sediment incubated with individual amino acids, with or without 28 mM urea; conditions: 37° C.
Protocol: (§1) To obtain human salivary sediment for performance of the experiments described herein, paraffin wax (4.02 g) was chewed by human subjects (including some subjects 70+ years of age, where oral alkalinity is commonly more prevalent) to stimulate the flow of saliva. Prior to the experiment, the subjects fasted for 12 hours and abstained from oral hygiene for at least 24 hours (to enable spontaneous dental plaque bacterial growth and buildup on their teeth and other oral surfaces (Kleinberg. I., 1967, Arch. Oral Biol., 1457-1473)). As a result of this process, oral bacteria were dislodged by the inert paraffin wax from the teeth and oral soft tissue surfaces in the mouths of the human subjects. About 40 ml of whole saliva was then collected from each subject by expectoration into a 50 ml polypropylene centrifuge tube chilled by surrounding it with cracked ice (Korayem, M. R., Traudt, M., and Kleinberg, I., 1990; Sandham, H. J. and Kleinberg, I., 1973).
(§2) The saliva collected was centrifuged at 1740 g in an International Equipment Company clinical centrifuge (Needham Heights, Mass.) for 15 min. at 4° C. The supernatant was decanted and discarded. To wash the remaining bacterial sediment, 40 ml of ice-cold distilled water was added and mixed in a vortex mixer. The resulting sediment-water mixture was centrifuged at 1740 g for 15 min. at 4° C. The supernatant was again decanted and discarded. This bacterial sediment washing procedure was repeated twice. To the washed bacterial sediment, 10 ml of deionized water was added and the composition was then mixed briefly and thoroughly in a vortex mixer. The sediment was transferred to a 15 ml polypropylene centrifuge tube. The resulting suspension was centrifuged at 1740 g for 15 min. at 4° C. and the resulting supernatant was aspirated and discarded.
To the packed 1.0 ml of salivary sediment obtained after centrifugation, 1.0 ml of deionized water was added to make a 50% salivary sediment suspension for the preparation of the following standard incubation mixtures: salivary sediment at 16.7% (v/v), with and without added individual amino acids: serine, glycine, alanine, valine, and/or histidine, etc. at either a 90 or 120 mM concentration; and leucine, isoleucine, aspartic acid, glutamine, cysteine, cystine, lysine, arginine, tyrosine, phenylalanine, threonine, proline, methionine, tyrosine, glutamine, and/or asparagine, each at 9 mM. These mixtures were each prepared in the presence or absence of 28 mM urea, which has a relatively high pH.
The initial pH of the incubation mixtures was carefully adjusted to or near 7.0 with either 1.0 M NaOH or 1.0 M HCl. Each bacterial mixture was then incubated overnight in a water bath at 37° C. The pH of each mixture was then determined using a combined pH and reference electrode (Radiometer Analytical SAS, Villeurbanne, France) at pre-determined time intervals.

[2] = tested on: human salivary sediment; assay: pH response of salivary sediment when initial pH was not adjusted to neutrality
Protocol: Separately, incubation mixtures containing salivary sediment at 16.7% (v/v), 238 mM serine, and 6 mM sodium phytate, with or without 6.7 mM urea, were prepared and incubated without adjusting the initial pH to or near 7.0, except for salivary sediment mixed with deionized water, which was adjusted to pH 8.10 with 1 M NaOH. Determination of the pH of each of these experimental entities were carried out at pre-determined time intervals (i.e., at 0 min., 15 min., 30 min., 1 h, 2 h, 3 h, 4 h, and 21 h) with a pH meter (Radiometer Copenhagen, type PHM26, Radiometer America, Westlake, Ohio) and a combination pH electrode (Radiometer Analytical, Cedex, France).

[3] = tested on: human salivary sediment; assay: pH response of salivary sediment with serine, with or without sodium phytate and 6.7 mM urea
Protocol: as §1, §2
Separately, incubation mixtures containing salivary sediment at 16.7% (v/v) and 6.7 or 8.3 mM serine in the presence or absence of 6.7 mM urea, 20 or 25 mM serine and/or 3 mM sodium phytate (Sigma-Aldrich, St. Louis, Mo.), both in the presence or absence of 6.7 mM urea were prepared. Mixtures were incubated overnight at 37° C. in a water bath incubator (Kleinberg, I. and Hall, G., 1968; Salako, N. O. and Kleinberg, I., 1989), after adjusting the initial pH to or near 7.0 with 1N NaOH or 1N HCl.
Separately, incubation mixtures containing salivary sediment at 16.7% (v/v), 20 or 25 mM serine, and 6 mM sodium phytate were prepared in the presence or absence of 6.7 mM urea. Mixtures were incubated overnight at 37° C. in a water bath incubator, after adjusting the initial pH to or near 7.0 with 1N NaOH or 1N HCl. […]

[4] = 9 mM amino acid + 28 mM urea, 4 hours
[5] = 9 mM amino acid + 28 mM urea, 21 hours (overnight)
[6] = 90 mM amino acid + 28 mM urea, 4 hours
[7] = 90 mM amino acid + 28 mM urea, 21 hours
[8] = 120 mM amino acid + 28 mM urea, 4 hours
[9] = 120 mM amino acid + 28 mM urea, 21 hours
[10] = 9 mM amino acid, without urea, 21 hours (overnight)
[11] = 9 mM amino acid, without urea, 4 hours

Row | SMILES | pH of salivary sediment [1, 4] | pH of salivary sediment [1, 5] | pH of salivary sediment [1, 10] | pH of salivary sediment [1, 11] | also measured
1 | N[C@@H](Cc1ccccc1)C(=O)O [phenylalanine] | 8.87 | 8.65 | – | – | –
2 | NCC(=O)O [glycine] | – | – | – | – | pH of salivary sediment [1, 6]: 8.72; pH of salivary sediment [1, 7]: 8.65; pH of salivary sediment [1, 8]: 8.90; pH of salivary sediment [1, 9]: 8.55
3 | N[C@@H](Cc1c[nH]c2ccccc12)C(=O)O [tryptophan] | 9.00 | 8.90 | 6.20 | – | –
4 | CC(C)[C@H](N)C(=O)O [valine] | – | – | – | – | pH of salivary sediment [1, 6]: 8.90; pH of salivary sediment [1, 7]: 8.85; pH of salivary sediment [1, 8]: 8.80; pH of salivary sediment [1, 9]: 8.70
5 | CC(C)C[C@H](N)C(=O)O [leucine] | 8.85 | 8.60 | 6.40 | 6.15 | –
6 | C[C@@H](O)[C@H](N)C(=O)O [threonine] | 8.90 | 8.60 | remained about unchanged | 6.20 | –
7 | O=C(O)[C@@H]1CCCN1 [proline] | 9.00 | 8.80 | remained about unchanged | 6.10 | –
8 | N[C@@H](Cc1ccc(O)cc1)C(=O)O [tyrosine] | 8.87 | 8.62 | – | – | –
9 | N[C@@H](CS)C(=O)O [cysteine] | 8.75 | 8.55 | 6.60 | 6.35 | –
10 | NC(=O)CC[C@H](N)C(=O)O [glutamine] | 9.00 | 8.80 | 6.25 | 5.95 | –
11 | NCCCC[C@H](N)C(=O)O [lysine] | – | 8.70 | remained at neutrality | – | –
12 | C[C@H](N)C(=O)O [alanine] | – | – | – | – | pH of salivary sediment [1, 6]: 8.82; pH of salivary sediment [1, 7]: 8.80; pH of salivary sediment [1, 8]: 8.72; pH of salivary sediment [1, 9]: 8.67
13 | N[C@@H](Cc1c[nH]cn1)C(=O)O [histidine] | – | – | – | – | pH of salivary sediment [1, 7]: 8.30; pH of salivary sediment [1, 9]: 8.22
14 | N[C@@H](CO)C(=O)O [serine] | – | – | – | – | initial pH of incubation mixture ([2]; absence of urea, initial pH not adjusted): 8.10; pH of incubation mixture ([2]; absence of urea, initial pH not adjusted, 21 hours): 6.50; initial pH of incubation mixture ([2]; with urea, initial pH not adjusted to 7.00): 8.10; pH of incubation mixture ([2]; with urea, initial pH not adjusted, end of the incubation): 6.85; pH of salivary sediment [1, 6]: 8.22; pH of salivary sediment [1, 8]: 8.30; pH of salivary sediment ([3]; 6.70 mM serine + 6.70 mM urea, 21 hours): 7.60; pH of salivary sediment ([3]; 6.70 mM serine, without urea, 4 hours): 5.95; pH of salivary sediment ([3]; 6.70 mM serine, without urea, 21 hours): 6.30; pH of salivary sediment ([3]; 8.30 mM serine + 6.70 mM urea, 21 hours): 7.50; pH of salivary sediment ([3]; 8.30 mM serine, without urea, 4 hours): 5.90; pH of salivary sediment ([3]; 8.30 mM serine, without urea, 21 hours): 6.25; pH of salivary sediment ([3]; 20 mM serine, absence of urea, 4 hours (FIG. 16, 6 mM sodium phytate series)): 7.15; pH of salivary sediment ([3]; 20 mM serine, absence of urea, 4 hours, initial pH 6.90 (FIG. 15, 3 mM sodium phytate series)): 6.20; pH of salivary sediment ([3]; 20 mM serine, absence of urea, 21 hours (FIG. 15, 3 mM sodium phytate series)): 6.65; pH of salivary sediment ([3]; 20 mM serine, absence of urea, 21 hours (FIG. 16, 6 mM sodium phytate series)): 6.47; pH of salivary sediment ([3]; 25 mM serine, absence of urea, 4 hours (FIG. 16, 6 mM sodium phytate series)): 6.17; pH of salivary sediment ([3]; 25 mM serine, absence of urea, 4 hours, initial pH 7.00 (FIG. 15, 3 mM sodium phytate series)): 6.17; pH of salivary sediment ([3]; 25 mM serine, absence of urea, 21 hours (FIG. 15, 3 mM sodium phytate series)): 6.70; pH of salivary sediment ([3]; 25 mM serine, absence of urea, 21 hours (FIG. 16, 6 mM sodium phytate series)): 6.45
15 | N[C@@H](CSSC[C@H](N)C(=O)O)C(=O)O [cystine] | 8.80 | 8.50 | 6.35 | – | –
16 | N[C@@H](CC(=O)O)C(=O)O [aspartic acid] | 8.90 | 8.60 | 7.00 | – | –
17 | CSCC[C@H](N)C(=O)O [methionine] | 9.00 | 8.90 | 6.20 | – | –
18 | N=C(N)NCCC[C@H](N)C(=O)O [arginine] | – | 8.80 | 7.97 | – | –
19 | CC[C@H](C)[C@H](N)C(=O)O [isoleucine] | 8.90 | 8.65 | 6.62 | 6.40 | –
20 | N[C@@H](CCC(=O)O)C(=O)O [glutamic acid] | 8.90 | 8.50 | 6.70 | – | –
21 | NC(=O)C[C@H](N)C(=O)O [asparagine] | 8.90 | 8.70 | 7.35 | 6.55 | –
22 | NC(N)=O [urea] | – | – | – | – | pH of salivary sediment ([1]; 28 mM urea alone, 4 hours): about 9.0; pH of salivary sediment ([1]; 28 mM urea alone, 21 hours): 8.8
